The target in assay [1] is T1, AChE from human erythrocytes (Homo sapiens, UniProt P22303).
T1 construct: AChE from human erythrocytes (EC 3.1.1.7); purchased Sigma; host or cells: human erythrocytes (tissue-derived)
Nature of the assay: In vitro AChE inhibition assay (Ellman). It counts as biochemical. The note with it: for IC50: mean ± SEM, 3 experiments, acetylthiocholine substrate; for inhibition at 10 µM: 10 µM compound, read-out: AChE percentage of inhibition at 10 µM. Here is the method:
(§1) AChE from human erythrocytes (EC 3.1.1.7) (min. 500 units/mg protein in buffered aqueous solution) and BuChE from human serum (EC 3.1.1.8) (3 units/mg protein, lyophilised powder) were purchased from Sigma.
(§2) Compounds were evaluated in 100 mM phosphate buffer pH 8.0 at 30 °C, using acetylthiocholine and butyrylthiocholine (0.4 mM) as substrates, respectively. In both cases, 5,5-dithio-bis(2-nitrobenzoic) acid (DTNB, Ellman’s reagent, 0.2 mM) was used and the values of IC50 were calculated by UV spectroscopy from the absorbance changes at 412 nm. Experiments were performed in triplicate.
(In Ellman's method for cholinesterases, released thiocholine reacts with DTNB.)

Another assay has as its target T2, BuChE from human serum (Homo sapiens, UniProt P06276).
T2 construct: BuChE from human serum (EC 3.1.1.8); purchased Sigma; host or cells: human serum (tissue-derived)
In words: In vitro BuChE inhibition assay (Ellman). Type of assay: biochemical. The note with it: for IC50: mean ± SEM, 3 experiments, butyrylthiocholine substrate; for inhibition at 10 µM / BuChE percentage of inhibition at 10 µM: 10 µM compound; for inhibition at 10 µM: read-out: BuChE percentage of inhibition at 10 µM. As to the method:
as §1, §2

The next assay deals with T3, BACE1 (Homo sapiens, UniProt P56817).
T3 construct: purchased Invitrogen
T3 sequence (P56817 46-501): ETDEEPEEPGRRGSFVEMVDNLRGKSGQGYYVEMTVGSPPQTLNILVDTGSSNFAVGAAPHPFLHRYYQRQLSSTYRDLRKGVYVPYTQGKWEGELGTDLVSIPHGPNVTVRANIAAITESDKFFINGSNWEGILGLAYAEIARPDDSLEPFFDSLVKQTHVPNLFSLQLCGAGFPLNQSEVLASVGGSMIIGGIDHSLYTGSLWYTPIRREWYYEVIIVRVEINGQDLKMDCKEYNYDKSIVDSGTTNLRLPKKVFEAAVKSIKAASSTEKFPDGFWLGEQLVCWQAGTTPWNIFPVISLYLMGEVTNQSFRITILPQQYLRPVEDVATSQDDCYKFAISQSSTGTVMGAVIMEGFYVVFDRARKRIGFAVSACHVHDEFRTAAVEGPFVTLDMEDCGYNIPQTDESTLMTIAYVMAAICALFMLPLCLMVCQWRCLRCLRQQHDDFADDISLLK
In words: BACE1 enzymatic FRET assay. Type of assay: biochemical. The settings on record: for IC50: pH 4.5, mean ± SEM; for inhibition at 10 µM: pH 4.5, 10 µM compound, read-out: BACE1 percentage of inhibition at 10 µM. As to the method: The BACE1 ([…]) assay was carried out according to the manufacturer’s described protocol which is available from Invitrogen[36].
Briefly, BACE1 in vitro assays were carried out using fluorescence resonance energy transfer (FRET). An APP-based peptide substrate (rhodamine-EVNLDAEFK-quencher, Km of 20 μM) carrying the Swedish mutation and containing rhodamine as a fluorescence donor and a quencher acceptor at each end was used. The intact substrate is weakly fluorescent and becomes highly fluorescent upon enzymatic cleavage. The assays were conducted in 50 mM sodium acetate buffer, pH 4.5, at a final enzyme concentration of 1 U/mL. Inhibitor screening was performed at 10 μM. The mixture was incubated for 60 min at 25 °C under dark conditions and then stopped with 2.5 M sodium acetate. Fluorescence was measured with a FLUOstar Optima (BMG Labtechnologies GmbH, Offenburg, Germany) microplate reader at 545 nm excitation and 585 nm emission. The assay kit was validated by the manufacturer.

A short description of assay [2]: Oxygen radical absorbance capacity assay (ORAC-FL). The note with it: for ORAC (Oxygen Radical Absorbance Capacity): pH 7.4. Here is the method: The ORAC-FL method of Ou et al.[37], partially modified by Dávalos et al.[38], was followed, using a FLUOstar Optima (BMG Labtechnologies GmbH, Offenburg, Germany) with 485 excitation and 520 emission filters. 2,2′-Azobis-(amidinopropane) dihydrochloride (AAPH), (±)-6-hydroxy-2,5,7,8-tetramethylchromane-2-carboxylic acid (trolox) and fluorescein (FL) were purchased from Sigma-Aldrich. The reaction was carried out in 75 mM phosphate buffer (pH 7.4) and the final reaction mixture was 200 µL. […] The mixture was pre-incubated for 30 min at 37 °C and then AAPH solution (25 µL, 240 mM) was added rapidly using a multichannel pipette. The microplate was immediately placed in the reader and the fluorescence was recorded every 90 s. for 90 min. The microplate was automatically shaken prior to each reading. Samples were measured at four different concentrations (10^−1 µM). A blank (FL + AAPH in phosphate buffer) instead of the sample solution and four calibration solutions using trolox (10^−1 µM) was also used in each assay. All of the reaction mixtures were prepared in duplicate and at least three independent assays were performed for each sample. Raw data were exported from the Fluostar optima Software to an Excel sheet for further calculations. Antioxidant curves (fluorescence vs. time) were represented and the area under the curve (AUC) is calculated as: AUC =f1/f0+fi/f0+ … +f34/f0+ (f35/f0) where fo = initial fluorescence reading at 0 min and fi = fluorescence reading at time i. The net AUC is obtained by subtracting the AUC of the blank from that of a sample. The relative Trolox equivalent ORAC value is calculated as: Relative ORAC value =[(AUC sample - AUC blank)/(AUCT rolox - AUC blank)](molarity of trolox/molarity of sample)

The target of another assay is T4, BuChE (Homo sapiens, UniProt P06276).
T4 construct: BuChE from human serum (EC 3.1.1.8); purchased Sigma; host or cells: human serum (tissue-derived)
T4 sequence (P06276 29-602): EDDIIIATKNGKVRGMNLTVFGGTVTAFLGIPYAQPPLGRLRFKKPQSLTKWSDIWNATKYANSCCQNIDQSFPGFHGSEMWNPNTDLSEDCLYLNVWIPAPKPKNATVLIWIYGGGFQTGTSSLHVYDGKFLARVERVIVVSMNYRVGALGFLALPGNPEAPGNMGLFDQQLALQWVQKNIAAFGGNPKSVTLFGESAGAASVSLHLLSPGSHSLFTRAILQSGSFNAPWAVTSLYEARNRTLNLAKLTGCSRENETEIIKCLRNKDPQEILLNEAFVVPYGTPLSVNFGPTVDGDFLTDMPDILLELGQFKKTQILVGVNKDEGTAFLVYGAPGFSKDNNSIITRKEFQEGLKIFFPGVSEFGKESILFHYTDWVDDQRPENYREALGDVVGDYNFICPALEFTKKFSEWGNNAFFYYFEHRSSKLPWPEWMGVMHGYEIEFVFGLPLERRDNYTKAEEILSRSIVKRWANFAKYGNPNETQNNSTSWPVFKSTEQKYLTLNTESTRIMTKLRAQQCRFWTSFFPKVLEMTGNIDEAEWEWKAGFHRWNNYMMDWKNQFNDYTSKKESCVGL
In words: Kinetic study of BuChE inhibition (Lineweaver-Burk plots). Type of assay: biochemical. As to the method: To investigate the mechanism of action of the compounds on AChE or BuChE, a kinetic analysis was performed. The experiments were carried out using combinations of four substrate concentrations and three inhibitor concentrations. Double-reciprocal Lineweaver–Burk plots of the data obtained, in which each point is the mean of three different experiments, were analysed.
Competitive inhibitors have the same y-intercept as uninhibited enzymes (since Vmax is unaffected by competitive inhibitors the inverse of Vmax also doesn’t change), but there are different slopes and x-intercepts. Non-competitive inhibition produces plots with the same x-intercept as uninhibited enzyme (Km is unaffected) but different slopes and y-intercepts. Uncompetitive inhibition causes different intercepts on both the y- and x-axes, but the same slope. Mixed inhibitors cause intersects above or below the x-axes.
The Ki, values were determined by fitting the kinetic data to a competitive, non-competitive, or mixed inhibition model by nonlinear regression analysis using GraphPad Prism[35].

T1 sequence (P22303 32-617 isoform P22303-2 limits assumed): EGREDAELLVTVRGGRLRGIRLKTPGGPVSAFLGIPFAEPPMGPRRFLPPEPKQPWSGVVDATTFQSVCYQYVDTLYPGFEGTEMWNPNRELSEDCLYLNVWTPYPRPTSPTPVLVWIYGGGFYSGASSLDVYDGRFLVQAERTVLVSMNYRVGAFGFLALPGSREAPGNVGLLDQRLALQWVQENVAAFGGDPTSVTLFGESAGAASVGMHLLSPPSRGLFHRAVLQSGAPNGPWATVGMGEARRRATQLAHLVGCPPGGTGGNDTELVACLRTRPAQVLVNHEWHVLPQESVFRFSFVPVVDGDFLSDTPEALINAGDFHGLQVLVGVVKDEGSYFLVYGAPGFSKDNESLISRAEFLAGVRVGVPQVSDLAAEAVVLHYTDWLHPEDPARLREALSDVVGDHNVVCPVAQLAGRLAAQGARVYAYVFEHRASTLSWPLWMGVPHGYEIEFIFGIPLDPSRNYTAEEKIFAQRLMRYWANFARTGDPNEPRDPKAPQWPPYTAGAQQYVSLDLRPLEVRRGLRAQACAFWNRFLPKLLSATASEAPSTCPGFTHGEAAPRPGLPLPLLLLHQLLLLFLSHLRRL
T2 sequence (P06276 29-602): as the sequence (P06276 29-602) above

The IC50 is the midpoint of a concentration-inhibition curve. For the compound `Clc1cccc(COc2nn(Cc3cccc4ccccc34)c3ccc(NCCCN4CCCCC4)cc23)c1Cl` [Compound 5], the results for the IC50 (in assay [1]; on BuChE from human serum; at BACE1) were more than 10 µM, more than 10 µM and 2.7 ± 0.1 µM, respectively. In addition, the “ORAC (Oxygen Radical Absorbance Capacity)” value (from here on “ORAC”) in assay [2] was 0.8 ± 0.1 μmol of Trolox equivalents/μmol of tested compound.

As a reminder, the inhibition is the percentage by which the read-out fell short of the control. Regarding `O=C(Nc1ccc2c(c1)c(OCc1ccccc1)nn2Cc1ccccc1)c1cccc(Cl)c1Cl` [Compound 7], the IC50 was 7.6 ± 0.3 µM in assay [1] and more than 10 µM against BuChE from human serum. Besides, the inhibition at 10 µM at BACE1 worked out at 60%. In assay [2], the “ORAC” value is 0 μmol of Trolox equivalents/μmol of tested compound.

For `CCN(CC)C(=O)Nc1ccc2c(c1)c(OCc1cccc3ccccc13)nn2Cc1ccccc1` [Compound 8], the inhibition at 10 µM in assay [1] came out at 29%. In addition, the IC50 is more than 10 µM in assay [1], more than 10 µM against BuChE from human serum and 9.1 ± 0.5 µM at BACE1. Moreover, the “Antioxidant properties in relation to Trolox” value (shortened to “Antioxidant properties”) in assay [2] is given as “higher than 60%”. The “ORAC” value in assay [2] is reported as 0.9 ± 0.1 μmol of Trolox equivalents/μmol of tested compound.

`CN(C(=O)Nc1ccc2c(c1)c(OCc1cccc3ccccc13)nn2Cc1ccc(Cl)cc1)c1ccccc1` [Compound 9] showed an IC50 in assay [1] of more than 10 µM. The compound also had an IC50 against BuChE from human serum of more than 10 µM. In addition, on BACE1, the inhibition at 10 µM turned out to be 29% and the IC50 is more than 10 µM. In addition, in assay [2], the “Antioxidant properties” value was “higher than 60%” and the “ORAC” value is recorded as 0.6 ± 0.1 μmol of Trolox equivalents/μmol of tested compound.

Turning to `O=C(Nc1ccc2c(c1)c(OCc1cccc3ccccc13)nn2Cc1ccc(Cl)c(Cl)c1)N(c1ccccc1)c1ccccc1` [Compound 10], the values for the inhibition at 10 µM (in assay [1]; on BACE1) were 28% and 10%, respectively. The IC50 (in assay [1]; against BuChE from human serum; at BACE1) was more than 10 µM in each case. Besides, the “ORAC” value in assay [2] is 0.2 ± 0.1 μmol of Trolox equivalents/μmol of tested compound.

In the case of `CN1CCN(C(=O)Nc2ccc3c(c2)c(OCc2ccccc2)nn3Cc2cccc(Cl)c2Cl)CC1` [Compound 11], the IC50 in assay [1] was more than 10 µM. In addition, at BuChE from human serum, the inhibition at 10 µM turned out to be 47% and the IC50 was more than 10 µM. On BACE1, this compound registered an IC50 of 2.8 ± 0.5 µM. Further, in assay [2], the “Antioxidant properties” value is given as “higher than 60%” and the “ORAC” value is 1.1 ± 0.1 μmol of Trolox equivalents/μmol of tested compound.

Regarding `O=C(Nc1ccc2c(c1)c(OCc1cccc(Cl)c1Cl)nn2Cc1cccc2ccccc12)N1CCCC1` [Compound 12], the IC50 (in assay [1]; at BuChE from human serum; at BACE1) was more than 10 µM in each case. Besides, the inhibition at 10 µM on BACE1 came out at 43%. Also, the “ORAC” value in assay [2] is listed as 0.5 ± 0.1 μmol of Trolox equivalents/μmol of tested compound.

In assay [1], `Nc1ccc2c(c1)c(OCc1ccccc1)nn2Cc1ccccc1` [Compound 27, 5-amino-1-benzyl-3-(benzyloxy)indazole] showed a concentration for half-maximal inhibition (IC50) of 8.6 ± 0.5 µM. Further, on BuChE from human serum, the “BuChE percentage of inhibition at 10 µM” value is recorded as “very slight inhibition”, the inhibition at 10 µM was found to be 21% and the IC50 is more than 10 µM. At BACE1, the inhibition at 10 µM was 2% and the IC50 is more than 10 µM. Besides, in assay [2], the “ORAC” value is recorded as 0.9 ± 0.1 μmol of Trolox equivalents/μmol of tested compound.

Consider `Nc1ccc2c(c1)c(OCc1ccc3ccccc3c1)nn2Cc1ccc2ccccc2c1` [Compound 28], for which the midpoint of inhibition in assay [1], the IC50, lay at 4.1 ± 0.2 µM. Also, on BuChE from human serum, the “BuChE percentage of inhibition at 10 µM” value is “very slight inhibition”, the inhibition at 10 µM was 24% and the IC50 was more than 10 µM. On BACE1, this compound had an IC50 of 8.9 ± 0.5 µM. In addition, the “ORAC” value in assay [2] was 0.3 ± 0.1 μmol of Trolox equivalents/μmol of tested compound.

As to `Nc1ccc2c(c1)c(OCc1ccccc1)nn2Cc1cccc(Cl)c1Cl` [Compound 29], the IC50 (in assay [1]; at BuChE from human serum; against BACE1) was more than 10 µM throughout. Further, the “ORAC” value in assay [2] is listed as 0.7 ± 0.1 μmol of Trolox equivalents/μmol of tested compound.

Consider `Nc1ccc2c(c1)c(OCc1cccc(Cl)c1Cl)nn2Cc1cccc2ccccc12` [Compound 30], for which the inhibition at 10 µM in assay [1] was found to be 36%; on BACE1 it was 79%. For the same compound, the IC50 (in assay [1]; on BuChE from human serum) was more than 10 µM each time. Further, the “ORAC” value in assay [2] is listed as 0.8 ± 0.1 μmol of Trolox equivalents/μmol of tested compound.

In assay [1], `Nc1ccc2c(c1)c(OCc1ccc3ccccc3c1)nn2Cc1ccc(Cl)c(Cl)c1` [Compound 31] showed an IC50 of 6 ± 0.5 µM. In addition, on BuChE from human serum, the “BuChE percentage of inhibition at 10 µM” value is “very slight inhibition”, the inhibition at 10 µM stood at 30% and the IC50 is more than 10 µM. In addition, the inhibition at 10 µM at BACE1 came out at 69%. The “ORAC” value in assay [2] is listed as 0.63 ± 0.04 μmol of Trolox equivalents/μmol of tested compound.

Turning to `Nc1ccc2c(c1)c(OCc1cccc3ccccc13)nn2Cc1ccccc1` [Compound 32], the IC50 (in assay [1]; at BuChE from human serum; at BACE1) was more than 10 µM in each case. The “ORAC” value in assay [2] is listed as 1.0 ± 0.1 μmol of Trolox equivalents/μmol of tested compound.

On to `Nc1ccc2c(c1)c(OCc1cccc3ccccc13)nn2Cc1ccc(Cl)cc1` [Compound 33], for which the IC50 is more than 10 µM in assay [1], more than 10 µM against BuChE from human serum and 5.8 ± 0.5 µM against BACE1. Moreover, the “ORAC” value in assay [2] was 1.0 ± 0.1 μmol of Trolox equivalents/μmol of tested compound.

Compound `Nc1ccc2c(c1)c(OCc1cccc3ccccc13)nn2Cc1ccc(Cl)c(Cl)c1` [Compound 34] displayed an IC50 in assay [1] of 3.5 ± 0.6 µM. Besides, at BuChE from human serum, the “BuChE percentage of inhibition at 10 µM” value was “very slight inhibition”, the inhibition at 10 µM was 32% and the IC50 is more than 10 µM. The inhibition at 10 µM at BACE1 is 72%. Further, the “ORAC” value in assay [2] is recorded as 0.33 ± 0.05 μmol of Trolox equivalents/μmol of tested compound.

Turning to `COc1cc2c(cc1OC)C(=O)C(CC1CCN(Cc3ccccc3)CC1)C2` (centres unmarked) [donepezil, reference compound], the “BuChE inhibition mode of action (in words)” value on BuChE is given as “mixed type”.

The values are drawn from article PMC9477487, “Multitarget drugs as potential therapeutic agents for alzheimer’s disease. A new family of 5-substituted indazole derivatives as cholinergic and BACE1 inhibitors” (Journal of Enzyme Inhibition and Medicinal Chemistry, 2022).
